Each structure is given as a SMILES string.

What is called melting point is the temperature of the solid-liquid transition. Consider `CC(C)(C)c1cc(Cn2nc(C=Cc3nn(Cc4cc(C(C)(C)C)c(O)c(C(C)(C)C)c4)c(=O)o3)oc2=O)cc(C(C)(C)C)c1O`, for which the melting point came to 263 °C.
Next, `CS(=O)(=O)Nc1ccc(CCBr)cc1`: 92 to 94 °C.
Next, `c1ccc(-c2ccc(OCC3CO3)cc2)cc1` (stereo not given): 80.2 to 82.9 °C.
Under `CCCOc1cccc(CO)c1I` stands 75 to 75.5 °C.
`CC(C)C(=O)NCCC1C=CC=CC1=O` (stereo not given) had a melting point of 88 to 93 °C.
Under `CCOc1cc(=O)n(-c2ccc([N+](=O)[O-])cc2)[nH]1` stands 143 °C; under `O=C(O)C1=CSC2C(=Cc3cc4c(s3)CCOC4)C(=O)N12` (stereo not given), > 250 °C; under `O=C(O)[C@H]1C=C[C@@H](c2ccc([N+](=O)[O-])cc2)n2c(=O)n(CCCl)c(=O)n21` (relative stereo), 192 to 194 °C.
In the case of `CCc1cn([C@H]2C[C@H](OC(C)=O)[C@@H](/C=C/C(=O)Cc3c(Cl)cccc3Cl)O2)c(=O)[nH]c1=O`, the melting point was determined as 165 °C.
Next, `O=C(NCc1ccccc1)OCCc1noc(-c2ccc(CN3CCCCCC3)s2)n1`: 138 to 139 °C; `Cc1nc2c(O)c(CC[C@@H](O)c3ccccc3)c(C(=O)N(C)C)cc2n1COCC[Si](C)(C)C`: 142 to 143 °C.
Under `CCOC(=O)C1[C@@H]2[C@@H](O)[C@@H]3O[C@H](c4ccc(F)cc4F)OC[C@H]3O[C@H]12` (stereo not given in full) stands 130 to 133 °C; under `NC(=O)c1c(I)c(C(=O)NC(CO)CO)c(I)c(C(=O)NC(CO)CO)c1I`, 246 to 252 °C.
Next, `Cc1oc(-c2ccccc2)nc1COc1ccc(CON=C(CCC(=O)O)c2ccc(F)cc2)cc1`: 139 to 140 °C; `CCCCc1nn(-c2cc(NC(=O)CC)ccc2Cl)c(=O)n1Cc1ccc(-c2ccccc2S(=O)(=O)NC(=O)c2ccccc2Oc2ccccc2)cc1`: 113 to 116 °C; `CC(C)c1ccc(C(=O)C2c3ccccc3Oc3ccccc32)c(C(C)C)c1OS(N)(=O)=O`: 180 to 181 °C.
As for `COc1cc(NC(=O)CCCCCN2CC(C)OC(C)C2)c2nccc(C)c2c1` (stereo not given), the melting point is 87 to 90 °C.
Next, `C=CCO/N=C(\C(=O)OC)c1csc(NC(c2ccccc2)(c2ccccc2)c2ccccc2)n1`: 115 to 116 °C.
Under `OC(CCCN1CCN(c2noc3ccccc23)CC1)c1ccc(F)cc1` (stereo not given) stands 142 to 144 °C; under `CCOc1cc(-c2cc(C(F)(F)F)nc(-c3ccnc(-c4ccc(S(N)(=O)=O)s4)c3)n2)ccc1C(F)(F)F`, 238 °C; under `O=c1oc2ccccc2n2cnc(-c3noc(C4CC4)n3)c12`, 234 to 236 °C.
Under `O=[N+]([O-])c1cc(CN2CCN(C(c3ccccc3)c3ccccc3)CC2)ccc1Cl` stands 102 °C; under `CC(C)(C)c1cc(C(=O)Nc2ccc(C(=O)O)cc2)cc(C(C)(C)C)c1O`, 160 to 162 °C.
For the molecule `COC(=O)c1cc(F)c(OC)nc1Nc1ccc(F)cc1F`, the melting point lay within 160 to 161 °C.
Next, `CC(=O)CCn1nc(C)c(-c2ccc3c(c2)NC(=O)CO3)c1-c1ccc(F)cc1`: 148 to 151 °C; `O=C(O)CCC(Cl)(Cl)Cl`: 54.8 °C.
Next, `COc1cc(COc2nn(-c3ccccc3)cc2/C=C/c2nnc(C)[nH]2)ccc1OCc1nc(-c2ccco2)oc1C`: 165 to 166 °C; `COc1ccc(-c2csc(NC(=O)C(=O)OCCc3ccccc3)n2)cc1`: 165 to 167 °C.
Under `COc1ccc(C(=O)Nc2ccccc2)cc1NC(=S)Nc1ccc(Cl)c(C(F)(F)F)c1` stands 172 to 173 °C.
The molecule `CN1CCCC(c2nc3cccnc3[nH]2)C1` (stereo not given) displayed a melting point of 141 to 144 °C.
Next, `CCOC(=O)C(C(C)=O)=C(N)C(F)(F)F`: 63 to 65 °C.
In turn, `CCOC(=O)c1c(CN(CC)CC)nc2n(Cc3ccccc3)c3ccccc3n12` came in with a melting point of 44 to 45 °C.
For the molecule `Cc1cn(-c2cc(NC(=O)c3ccc(C)c(C#Cc4ccc(NC5CCC5)nn4)c3)cc(C(F)(F)F)c2)cn1`, the melting point lay in the range of 223 to 225 °C.
`CC(=O)N1CCc2c(c3cccc4c3n2CCS4)C1` displayed a melting point of 161 to 163 °C.
Next, `CCCCCCc1ccc(C(=O)Nc2ccc3cc(CN4CCCC4)cnc3c2C)cc1`: 116 °C; `CC(C)(c1ccc(O)cc1)c1ccc(N2C(=O)C=CC2=O)cc1`: 168 to 171 °C.
For `COC(=O)C1=CC=C(CC2=CCc3ccc(NC(=O)C(F)(F)F)cc32)C(OC)(OC)C1`, the melting point was in the range of 198 to 200 °C.
Next, `CC(C)(C)OC(=O)N1CCN(c2ccc3[nH]cc(Sc4ccccc4)c3c2)CC1`: 174 °C; `O=C(NCC#Cc1ccc(C#CCNC(=O)OCc2ccccc2)nc1)OCc1ccccc1`: 156 to 158 °C.
Under `CCCN(CCC)S(=O)(=O)c1cccc(C(=O)Nc2cccc(Br)c2)c1` stands 105 to 107 °C.
Next, `CC1CC(=O)NN=C1c1ccc(NCCN)c(N)c1` (stereo not given): 176 to 177 °C; `COc1ccc2c(c1Cl)C=CN(C(C)=O)C2`: 78 to 80 °C; `O[C@H](CCc1cccnc1)COc1ccc(-c2ccc(F)cc2)cc1`: 124 to 125 °C.
For the molecule `CC(C)(C)OC(=O)N[C@H](CNc1ccccc1N)C(=O)O`, the melting point fell in the range of 158 to 160 °C.
Under `O=C1c2ccc([N+](=O)[O-])cc2C(=O)N1CCSc1ccccc1` stands 120 to 121 °C; under `COC(=O)C(=O)c1ccc(NC(=O)COc2ccc3ccccc3c2)cc1`, 175 to 176 °C; under `COc1cc2c(cc1Nc1ncc(Cl)c(N[C@H]3[C@@H](C(N)=O)[C@@H]4C=C[C@H]3C4)n1)CCN(CC(=O)N1CCCC1)CC2`, 126 to 145 °C.
Under `CC(=O)c1ccc(OC2CCN(C(=O)OC(C)(C)C)CC2)cc1F` stands 72 to 73 °C; under `CC(C)c1ccc(-n2nc(O)c3c(=O)c4ccc(Cl)cc4[nH]c3c2=O)cc1`, 393 to 394 °C; under `CCCC1=C(C#N)C(c2ccccc2Cl)c2c(n[nH]c2-c2cccs2)N1` (stereo not given), 256 °C.
`O=[N+]([O-])c1ccc(OCc2ccccc2)cc1Cl`: the melting point fell in the range of 82 to 84.5 °C.
Under `CCCCc1c(C=O)cc(OC)c2ccccc12` stands 51 to 52 °C; under `CC(C)CNC(=O)c1cccnc1Oc1cccc(Cl)c1`, 86 to 87 °C.
Next, `Clc1ccc2nc(NC3=NCCN3)[nH]c2c1`: 241 to 242 °C.
In turn, `Cc1ccc(N2C(=O)C(O)=C(C(=O)c3ccc(C(C)C)cc3)C2c2ccc(-c3nnc(C)o3)cc2)nn1` (stereo not given) came in with a melting point of 293 °C.
Under `Cc1cccc(NC(=O)NC2N=C(c3ccccc3F)c3ccccc3N(Cc3ncccc3C)C2=O)c1` (racemic) stands 216 to 217 °C; under `O[C@@H]1CN(C[C@H](O)c2ccccc2)CC[C@H]1CCOC(c1ccccc1)c1ccccc1`, 84 to 86 °C; under `CCOC(=O)NC1=NCC(c2ccc(OCC)cc2)N1C` (stereo not given), 115 to 116 °C.
Under `CCCCNC(=O)CCC(=NNC(N)=S)c1ccccc1` stands 64 to 68 °C; under `O=C1c2ccc(Cl)cc2CN2C(=NO)CCC12` (stereo not given), 249 to 252 °C.

Source of the values: a melting point compilation (Tetko et al.; mined from patent text by program, amines drawn as free bases though some values may be those of a salt).
